In paper PMC6397271 (Scientific Reports, 2019):
Values after ≈ are worked out from the molar mass of the structure shown. Values joined by “and” are separate entries in the source; they are usually repeats but may differ in a detail not shown here. Equal values may be shown once. Read-outs that look alike come from different tables or passages of the source.

Columns and labels:
[1] = tested on: S. aureus MRSA hetero-VISA 6347; assay: microbe, parasite or virus in culture; format: cell-based, Staphylococcus aureus
In short: (§1)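 MRSA strains (N315 reference; h-VISA 6347 clinical) and clinical E. faecium and E. faecalis were grown 24 h at 37 °C in cation-adjusted Mueller-Hinton or BHI broth, with CFU/ml determined. MIC was measured by broth microdilution with a resazurin metabolic read-out, in triplicate.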

[2] = tested on: S. aureus MRSA N315; assay: microbe, parasite or virus in culture; format: cell-based, Staphylococcus aureus
In short: as §1

[3] = tested on: bacterial strain not named; assay: Raw data of the MIC measurement (absorbance); format: cell-based; details: concentration marked (MIC) in raw absorbance data
Description: The strains were grown in Mueller-Hinton broth (MH cation-adjusted, Becton Dickinson) or Brain Heart Infusion broth (BHI, Becton Dickinson), respectively. The cultivation was carried out in an aerobic atmosphere at 37 °C for 24 hours and, afterwards, the bacterial cultures were diluted in geometric progression with a proper broth. Next, 100 µl of each dilution was inoculated in an agar plate and incubated at 37 °C for 24 h. The next procedures included determination of Colony Forming Units (CFU)/ml and minimal inhibitory concentration (MIC) of the compounds in question. The latter procedure was carried out according to the microbroth dilution technique using 96-well plates. The MICs were evaluated by using the metabolic assay based on the resazurin dye. The assay was performed in triplicates.

[4] = Brain concentration by LC/MS after iv administration; format: in vivo, BALB/c male mice; details: iv tail vein, 60 mg/kg, 2 hours after administration, brain homogenate supernatant, UHPLC-ESI/MS SIM; Mean ± SD, ten mice; 60 mg/kg
Description: In vivo experiments were performed on BALB/c male mice weighing between 20 and 30 g (the mouse model is widely used for estimation of drug BBB penetration). The animals (obtained from TAZD-CBU) were kept in a 12-hour day and night cycle at room temperature (20–22 °C), humidity 55–56% and fed with a standard diet and water ad libitum for at least 1 week before the experiment. Body temperature and weight were recorded on a regular daily schedule. It is confirmed that all procedures were carried out according to the guidelines outlined by the European Community Council Directive 2010/63/EEC, and they were approved by the local Ethical Committee Resolution 26/2014 (Bydgoszcz, Poland).
The experiments in this section also involved the mouse model described above. […] Similarly to what was stated previously, the mice were sacrificed 2 hours after the administration of the compounds. Their brains were removed immediately from the cranium and weighed. Next, they were homogenized mechanically in the ice and frozen at −80 °C.
Each homogenized mouse brain was centrifuged at 15 000 × g for 10 min. The supernatant was diluted with deionised water (Millipore), filtered (PTFE 0.22 μm filter) and analyzed by UHPLC-ESI/MS with the use of Shimadzu Nexera X2 UHPCL chromatograph and Shimadzu LCMS-2020 mass detector. […]

[5] = microbroth dilution, 96-well, resazurin, 37 °C, 24 h, mean ± SD, at least three independent experiments in triplicates, listed as Van-HCl
[6] = same test as μM value, mean ± SD

**Q.** Which MIC ([1]; Staphylococcus aureus, 24 h, microbroth dilution, 96-well, resazurin, 37 °C, 24 h, mean ± SD, at least three independent experiments in triplicates, read-out: MIC) does the source give for CN[C@H](CC(C)C)C(=O)N[C@H]1C(=O)N[C@@H](CC(N)=O)C(=O)N[C@H]2C(=O)N[C@H]3C(=O)N[C@H](C(=O)N[C@H](C(=O)O)c4cc(O)cc(O)c4-c4cc3ccc4O)[C@H](O)c3ccc(c(Cl)c3)Oc3cc2cc(c3O[C@@H]2O[C@H](CO)[C@@H](O)[C@H](O)[C@H]2O[C@H]2C[C@](C)(N)[C@H](O)[C@H](C)O2)Oc2ccc(cc2Cl)[C@H]1O [Van, vancomycin, reference compound] here?
**A.** 4.1 µM (≈ 5.94 µg/mL)

**Q.** And the MIC ([1]; Staphylococcus aureus, raw MIC, first block, test a, repetition 1, read-out: MIC1a)?
**A.** 4.07 µM (≈ 5.9 µg/mL)

**Q.** And the MIC ([1]; Staphylococcus aureus, raw MIC, first block, test a, repetition 2, read-out: MIC2a)?
**A.** 4.07 µM (≈ 5.9 µg/mL)

**Q.** And the MIC ([1]; Staphylococcus aureus, raw MIC, first block, test a, repetition 3, read-out: MIC3a)?
**A.** 4.07 µM (≈ 5.9 µg/mL)

**Q.** And the MIC ([1]; Staphylococcus aureus, raw MIC, first block, test b, repetition 1, read-out: MIC1b)?
**A.** 2.03 µM (≈ 2.94 µg/mL)

**Q.** And the MIC ([1]; Staphylococcus aureus, raw MIC, first block, test b, repetition 2, read-out: MIC2b)?
**A.** 4.07 µM (≈ 5.9 µg/mL)

**Q.** What about the MIC ([1]; Staphylococcus aureus, raw MIC, first block, test b, repetition 3, read-out: MIC3b) of the same compound?
**A.** 2.03 µM (≈ 2.94 µg/mL)

**Q.** And the MIC ([1]; Staphylococcus aureus, raw MIC, test a, repetition 1, read-out: MIC1a)?
**A.** 6.05 µM (≈ 8.77 µg/mL)

**Q.** And the MIC ([1]; Staphylococcus aureus, raw MIC, test a, repetition 2, read-out: MIC2a)?
**A.** 6.05 µM (≈ 8.77 µg/mL)

**Q.** And the MIC ([1]; Staphylococcus aureus, raw MIC, test a, repetition 3, read-out: MIC3a)?
**A.** 6.05 µM (≈ 8.77 µg/mL)

**Q.** And the MIC ([1]; Staphylococcus aureus, raw MIC, test b, repetition 1, read-out: MIC1b)?
**A.** 3.03 µM (≈ 4.39 µg/mL)

**Q.** And the MIC ([1]; Staphylococcus aureus, raw MIC, test b, repetition 2, read-out: MIC2b)?
**A.** 6.05 µM (≈ 8.77 µg/mL)

**Q.** And the MIC ([1]; Staphylococcus aureus, raw MIC, test b, repetition 3, read-out: MIC3b)?
**A.** 3.03 µM (≈ 4.39 µg/mL)

**Q.** And the “MIC” value [1, 5]?
**A.** 4.1 ± 1.1 µM (≈ 5.94 µg/mL)

**Q.** And the “MIC in (μg/ml)” value [1, 6]?
**A.** 6.1 ± 1.6 µg/mL (≈ 4.21 µM)

**Q.** And the MIC ([2]; Staphylococcus aureus, MRSA, 24 h, microbroth dilution, 96-well, resazurin, 37 °C, 24 h, mean ± SD, at least three independent experiments in triplicates, read-out: MIC)?
**A.** 2 µM (≈ 2.9 µg/mL)

**Q.** And the MIC ([2]; Staphylococcus aureus, MRSA, raw MIC, first block, test a, repetition 1, read-out: MIC1a)?
**A.** 2 µM (≈ 2.9 µg/mL)

**Q.** And the MIC ([2]; Staphylococcus aureus, MRSA, raw MIC, first block, test a, repetition 2, read-out: MIC2a)?
**A.** 1 µM (≈ 1.45 µg/mL)

**Q.** What about the MIC ([2]; Staphylococcus aureus, MRSA, raw MIC, first block, test a, repetition 3, read-out: MIC3a) of the same compound?
**A.** 2 µM (≈ 2.9 µg/mL)

**Q.** And the MIC ([2]; Staphylococcus aureus, MRSA, raw MIC, first block, test b, repetition 1, read-out: MIC1b)?
**A.** 2 µM (≈ 2.9 µg/mL)

**Q.** What about the MIC ([2]; Staphylococcus aureus, MRSA, raw MIC, first block, test b, repetition 2, read-out: MIC2b) of the same compound?
**A.** 2 µM (≈ 2.9 µg/mL)

**Q.** And the MIC ([2]; Staphylococcus aureus, MRSA, raw MIC, first block, test b, repetition 3, read-out: MIC3b)?
**A.** 1 µM (≈ 1.45 µg/mL)

**Q.** And the MIC ([2]; Staphylococcus aureus, MRSA, raw MIC, test a, repetition 1, read-out: MIC1a)?
**A.** 2.97 µM (≈ 4.3 µg/mL)

**Q.** And the MIC ([2]; Staphylococcus aureus, MRSA, raw MIC, test a, repetition 2, read-out: MIC2a)?
**A.** 1.49 µM (≈ 2.16 µg/mL)

**Q.** What about the MIC ([2]; Staphylococcus aureus, MRSA, raw MIC, test a, repetition 3, read-out: MIC3a) of the same compound?
**A.** 2.97 µM (≈ 4.3 µg/mL)

**Q.** And the MIC ([2]; Staphylococcus aureus, MRSA, raw MIC, test b, repetition 1, read-out: MIC1b)?
**A.** 2.97 µM (≈ 4.3 µg/mL)

**Q.** And the MIC ([2]; Staphylococcus aureus, MRSA, raw MIC, test b, repetition 2, read-out: MIC2b)?
**A.** 2.97 µM (≈ 4.3 µg/mL)

**Q.** What about the MIC ([2]; Staphylococcus aureus, MRSA, raw MIC, test b, repetition 3, read-out: MIC3b) of the same compound?
**A.** 1.49 µM (≈ 2.16 µg/mL)

**Q.** What about the “MIC” value [2, 5] of the same compound?
**A.** 2.0 ± 0.5 µM (≈ 2.9 µg/mL)

**Q.** And the MIC ([2]; microbroth dilution, 96-well, resazurin, 37 °C, 24 h, mean ± SD, at least three independent experiments in triplicates, read-out: MIC)?
**A.** 2 µM (≈ 2.9 µg/mL)

**Q.** What about the “MIC in (μg/ml)” value [2, 6] of the same compound?
**A.** 3.0 ± 0.7 µg/mL (≈ 2.07 µM)

**Q.** And the MIC [3]?
**A.** 3.13 µM (≈ 4.54 µg/mL)

**Q.** And the “Brain concentrations of Van” value [4]?
**A.** 0.011 µM and 0.011 ± 0.002 µM
